Measured values: ChEMBL document CHEMBL5380814, “Targeting Receptor-Interacting Protein Kinase 1 by Novel Benzothiazole Derivatives: Treatment of Acute Lung Injury through the Necroptosis Pathway” (J Med Chem, 2023)
Calls of active or inactive are those of the source. No cut-off for these calls is given here.

Legend:
HT-29 [1] = assay: Anti-necroptotic activity in human HT-29 cells assessed as inhibition of human TNFalpha/Smac mimetic/Z-VAD-FMK induced necroptosis preincubated with compound for 16 to 24 hrs followed by TSZ stimulation for 12 hrs measured by cell-titre glo luminescent cell viability assay; assay type: functional, cell-based
HT-29 [2] = assay: Anti-necroptotic activity in human HT-29 cells assessed as inhibition of human TNFalpha/Smac mimetic/Z-VAD-FMK induced necroptosis preincubated with compound followed by TSZ stimulation for 12 hrs; assay type: functional, cell-based
U-937 = assay: Anti-necroptotic activity in human U-937 cells assessed as protection against human TNFalpha/cycloheximide/Z-VAD-FMK induced necroptosis preincubated with compound at 1 to 7 uM for 16 to 24 hrs followed by TCZ stimulation for 12 hrs measured by cell-titre glo luminescent cell viability assay; assay type: functional, cell-based; details: dose 1-7 µM, time 28-36 hrs
HT-29 [3] = assay: Anti-necroptotic activity in human HT-29 cells assessed as protection against human TNFalpha/cycloheximide induced necroptosis preincubated with compound upto 10 uM for 16 to 24 hrs followed by TC stimulation for 24 hrs measured by cell-titre glo luminescent cell viability assay; assay type: functional, cell-based; details: time 40-48 hrs
L929 = assay: Anti-necroptotic activity in mouse L929 cells assessed as inhibition of mouse TNFalpha/Z-VAD-FMK induced necroptosis preincubated with compound for 16 to 24 hrs followed by TZ stimulation for 12 hrs measured by cell-titre glo luminescent cell viability assay; assay type: functional, cell-based; details: dose 6.3-800 nM, time 28-36 hrs
[4] = molecular target: T1, Receptor-interacting serine/threonine-protein kinase 3 (Homo sapiens, UniProt Q9Y572); assay: Inhibition of RIPK3 phosphorylation in TSZ-induced human HT-29 cells assessed as blocking of TSZ-induced necrosome formation at 0.5 uM pretreated with compound for 6 hrs followed by TSZ stimulation for 6 hrs measured by Western analysis; assay type: cell-based; details: time 12.0 hrs
[5] = molecular target: T2, Mixed lineage kinase domain-like protein (Homo sapiens) (UniProt Q8NB16); assay: Inhibition of MLKLphosphorylation in TSZ-induced human HT-29 cells assessed as blocking of TSZ-induced necrosome formation upto 1 uM pretreated with compound for 6 hrs followed by TSZ stimulation for 6 hrs measured by Western analysis; assay type: cell-based; details: time 12.0 hrs
T2 sequence (whole entry): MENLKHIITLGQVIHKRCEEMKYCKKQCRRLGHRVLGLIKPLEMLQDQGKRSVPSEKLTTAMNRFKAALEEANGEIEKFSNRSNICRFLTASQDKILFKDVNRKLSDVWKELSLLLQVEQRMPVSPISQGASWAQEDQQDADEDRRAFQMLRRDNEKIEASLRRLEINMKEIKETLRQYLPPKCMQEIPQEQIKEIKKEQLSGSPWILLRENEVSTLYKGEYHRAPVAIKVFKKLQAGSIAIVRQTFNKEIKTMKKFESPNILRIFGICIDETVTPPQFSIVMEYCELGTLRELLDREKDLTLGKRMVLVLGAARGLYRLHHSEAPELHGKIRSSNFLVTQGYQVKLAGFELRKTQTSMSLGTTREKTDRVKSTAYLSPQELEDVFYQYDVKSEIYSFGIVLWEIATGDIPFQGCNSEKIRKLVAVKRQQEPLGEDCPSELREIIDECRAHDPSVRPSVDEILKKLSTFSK

[6] = molecular target: T1, Receptor-interacting serine/threonine-protein kinase 3; assay: Inhibition of RIPK3 phosphorylation in TSZ-induced human HT-29 cells assessed as blocking of TSZ-induced necrosome formation at 1 uM pretreated with compound for 2 to 6 hrs followed by TSZ stimulation for 6 hrs measured by Western analysis; assay type: cell-based; details: time 8-12 hrs
Mus musculus [7] = assay: In vivo anti-necrotptic activity in mTNFalpha induced C57BL/6J SIRS mouse model assessed as protection from body temperature loss pretreated at 10 mg/kg, po for 1 hr followed by mTNFalpha/Z-VAD-FMK administration measured after 45 mins by electric thermometer; assay type: functional, organism-based; details: time 105.0 min
Mus musculus [8] = assay: In vivo anti-necrotptic activity in mTNFalpha induced C57BL/6J SIRS mouse model assessed as survival rate pretreated at 10 mg/kg, po for 1 hr followed by mTNFalpha/Z-VAD-FMK administration measured after 40 mins relative to control; assay type: functional; details: time 100 min, 1.667 h
Mus musculus [9] = assay: In vivo anti-necrotptic activity in mTNFalpha induced C57BL/6J SIRS mouse model assessed as survival rate pretreated at 20 mg/kg, po for 1 hr followed by mTNFalpha/Z-VAD-FMK administration measured after 40 mins relative to control; assay type: functional; details: time 100 min, 1.667 h
Mus musculus [10] = assay: In vivo anti-inflammatory activity in NNK induced induced C57BL/6J ALI mouse model assessed as less congestion in lung pretreated at 25 to 100 mg/kg, ip for 1 hr followed by NNK administration by HE staining analysis; assay type: functional, organism-based; details: dose 25-100 mg/kg
Mus musculus [11] = assay: In vivo anti-inflammatory activity in NNK induced induced C57BL/6J ALI mouse model assessed as decrease in inflammatory cell infiltration pretreated at 25 to 100 mg/kg, ip for 1 hr followed by NNK administration by HE staining analysis; assay type: functional, organism-based; details: dose 25-100 mg/kg
Mus musculus [12] = assay: In vivo anti-inflammatory activity in NNK induced induced C57BL/6J ALI mouse model assessed as decrease in wet lung weight pretreated at 25 to 100 mg/kg, ip for 1 hr followed by NNK administration relative to disease model; assay type: functional, organism-based; details: dose 25-100 mg/kg
Mus musculus [13] = assay: In vivo anti-inflammatory activity in NNK induced induced C57BL/6J ALI mouse model assessed as lung injury score pretreated at 50 mg/kg, ip for 1 hr followed by NNK administration relative to disease model (reference value: 5.7 +/- 0.5); assay type: functional
Mus musculus [14] = assay: In vivo anti-inflammatory activity in NNK induced induced C57BL/6J ALI mouse model assessed as lung injury score pretreated at 100 mg/kg, ip for 1 hr followed by NNK administration relative to disease model (reference value: 5.7 +/- 0.5); assay type: functional
Mus musculus [15] = assay: In vivo anti-inflammatory activity in NNK induced induced C57BL/6J ALI mouse model assessed as decrease in bronchoalveolar lavage fluid (BALF) total protein pretreated intraperitoneally for 1 hr followed by NNK administration; assay type: functional, organism-based; details: dose 25-100 mg/kg, route ip
Mus musculus [16] = assay: In vivo anti-inflammatory activity in NNK induced induced C57BL/6J ALI mouse model assessed as decrease in bronchoalveolar lavage fluid (BALF) IL-6 level pretreated at 25 to 100 mg/kg, ip for 1 hr followed by NNK administration; assay type: functional, organism-based; details: dose 25-100 mg/kg
Mus musculus [17] = assay: In vivo anti-inflammatory activity in NNK induced induced C57BL/6J ALI mouse model assessed as decrease in lung IL-6 mRNA level pretreated at 25 to 100 mg/kg, ip for 1 hr followed by NNK administration; assay type: functional, organism-based; details: dose 25-100 mg/kg

T1 sequence (Q9Y572 whole entry, looked up, the tested form may be a part): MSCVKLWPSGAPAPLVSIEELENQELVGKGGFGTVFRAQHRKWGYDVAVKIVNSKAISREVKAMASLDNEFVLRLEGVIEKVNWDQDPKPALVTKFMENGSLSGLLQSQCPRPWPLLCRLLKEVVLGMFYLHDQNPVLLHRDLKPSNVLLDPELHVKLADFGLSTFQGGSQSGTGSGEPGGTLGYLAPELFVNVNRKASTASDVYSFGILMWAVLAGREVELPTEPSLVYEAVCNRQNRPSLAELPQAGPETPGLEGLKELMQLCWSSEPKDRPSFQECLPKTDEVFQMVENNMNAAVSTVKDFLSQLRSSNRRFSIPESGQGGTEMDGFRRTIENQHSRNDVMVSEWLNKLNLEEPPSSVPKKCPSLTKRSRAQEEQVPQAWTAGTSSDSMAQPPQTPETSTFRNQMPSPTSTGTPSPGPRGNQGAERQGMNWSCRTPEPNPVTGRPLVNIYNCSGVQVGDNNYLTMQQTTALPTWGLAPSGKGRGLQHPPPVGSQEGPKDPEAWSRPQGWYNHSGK

CCS(=O)(=O)NC1CCC(C(=O)Nc2nc3cc(F)c(Oc4ccc(F)c(NC(=O)Cc5cccc(C(F)(F)F)c5)c4)cc3s2)CC1 (centres undefined)
EC50 (HT-29 [1]): 0.0224 µM
Activity (HT-29 [2]): inactive
Activity (U-937): Active
Activity (HT-29 [3]): inactive
Activity (L929): Dose-Dependent Effect
inhibition [4]: Active
inhibition [5]: Active
inhibition [6]: Active
Activity (Mus musculus [7]): Active
Activity (Mus musculus [8]): 90%
Activity (Mus musculus [9]): 100%
Activity (Mus musculus [10]): Active
Activity (Mus musculus [11]): Active
Activity (Mus musculus [12]): Active
Activity (Mus musculus [13]): 3.3
Activity (Mus musculus [14]): 2.7
Activity (Mus musculus [15]): Dose-Dependent Effect
Activity (Mus musculus [16]): Active
Activity (Mus musculus [17]): Active
